Measured values taken from ChEMBL document CHEMBL4428091, “Design and optimization of (3-aryl-1H-indazol-6-yl)spiro[cyclopropane-1,3'-indolin]-2'-ones as potent PLK4 inhibitors with oral antitumor efficacy” (Bioorg Med Chem Lett, 2016).

Legend:
CYP2C9 = CYP2C9 (Homo sapiens, UniProt P11712); assay: Inhibition of CYP2C9 (unknown origin) at 1 uM; format: ADME
[1] = Lipophilicity, log D of the compound at pH 7.4; format: physicochemical; conditions: buffer
[2] = Clearance in rat at 1 mg/kg, iv; format: ADME, organism-based; conditions: in vivo
[3] = Half life in mouse microsomes; format: ADME, Microsome
CYP2C19 = CYP2C19 (Homo sapiens, UniProt P33261); assay: Inhibition of CYP2C19 (unknown origin) at 1 uM; format: ADME
Sequence of CYP2C19 (P33261 whole entry): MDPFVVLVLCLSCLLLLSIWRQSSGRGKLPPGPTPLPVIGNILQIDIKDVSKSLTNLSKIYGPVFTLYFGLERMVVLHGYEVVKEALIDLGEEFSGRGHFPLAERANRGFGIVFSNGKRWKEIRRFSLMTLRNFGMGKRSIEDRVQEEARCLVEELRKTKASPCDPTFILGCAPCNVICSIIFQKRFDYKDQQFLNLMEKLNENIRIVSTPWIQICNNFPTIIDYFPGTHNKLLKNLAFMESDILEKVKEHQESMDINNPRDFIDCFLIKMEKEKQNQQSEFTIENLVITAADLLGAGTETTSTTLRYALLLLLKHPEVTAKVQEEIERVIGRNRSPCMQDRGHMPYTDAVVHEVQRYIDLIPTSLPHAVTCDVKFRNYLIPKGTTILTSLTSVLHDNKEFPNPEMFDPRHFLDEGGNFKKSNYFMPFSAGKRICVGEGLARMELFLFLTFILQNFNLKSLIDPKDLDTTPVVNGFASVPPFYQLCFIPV

[4] = Oral bioavailability in rat at 5 mg/kg; format: ADME, organism-based; conditions: in vivo
[5] = AUC in rat at 1 mg/kg, iv; format: ADME, organism-based; conditions: in vivo
[6] = Half life in rat at 1 mg/kg, iv; format: ADME, organism-based; conditions: in vivo
[7] = AUC in rat at 5 mg/kg, po; format: ADME, organism-based; conditions: in vivo
[8] = Half life in human microsomes; format: ADME, Microsome
[9] = Cmax in mouse at 25 mg/kg, po; format: ADME, organism-based; set-up: dose 25 mg/kg, route oral; conditions: in vivo
CYP3A4 = CYP3A4 (Homo sapiens, UniProt P08684); assay: Inhibition of CYP3A4 (unknown origin) at 1 uM; format: ADME
Sequence of CYP3A4 (P08684 whole entry): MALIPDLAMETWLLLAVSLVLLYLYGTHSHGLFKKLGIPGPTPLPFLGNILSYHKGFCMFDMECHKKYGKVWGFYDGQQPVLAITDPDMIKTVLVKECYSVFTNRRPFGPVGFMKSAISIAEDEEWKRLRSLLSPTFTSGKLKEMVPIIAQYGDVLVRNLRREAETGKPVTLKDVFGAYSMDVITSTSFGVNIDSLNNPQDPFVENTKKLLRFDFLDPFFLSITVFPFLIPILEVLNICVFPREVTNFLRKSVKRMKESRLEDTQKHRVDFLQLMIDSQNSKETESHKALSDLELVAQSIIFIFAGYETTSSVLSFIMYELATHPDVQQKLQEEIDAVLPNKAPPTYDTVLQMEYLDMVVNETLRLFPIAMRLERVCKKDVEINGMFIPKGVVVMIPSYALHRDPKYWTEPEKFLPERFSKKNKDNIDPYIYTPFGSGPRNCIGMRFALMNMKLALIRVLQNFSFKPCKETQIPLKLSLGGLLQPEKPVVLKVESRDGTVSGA

[10] = target: T1, Receptor-type tyrosine-protein kinase FLT3 (Homo sapiens, UniProt P36888); assay: Inhibition of FLT3 (unknown origin)
T1 sequence (P36888 whole entry): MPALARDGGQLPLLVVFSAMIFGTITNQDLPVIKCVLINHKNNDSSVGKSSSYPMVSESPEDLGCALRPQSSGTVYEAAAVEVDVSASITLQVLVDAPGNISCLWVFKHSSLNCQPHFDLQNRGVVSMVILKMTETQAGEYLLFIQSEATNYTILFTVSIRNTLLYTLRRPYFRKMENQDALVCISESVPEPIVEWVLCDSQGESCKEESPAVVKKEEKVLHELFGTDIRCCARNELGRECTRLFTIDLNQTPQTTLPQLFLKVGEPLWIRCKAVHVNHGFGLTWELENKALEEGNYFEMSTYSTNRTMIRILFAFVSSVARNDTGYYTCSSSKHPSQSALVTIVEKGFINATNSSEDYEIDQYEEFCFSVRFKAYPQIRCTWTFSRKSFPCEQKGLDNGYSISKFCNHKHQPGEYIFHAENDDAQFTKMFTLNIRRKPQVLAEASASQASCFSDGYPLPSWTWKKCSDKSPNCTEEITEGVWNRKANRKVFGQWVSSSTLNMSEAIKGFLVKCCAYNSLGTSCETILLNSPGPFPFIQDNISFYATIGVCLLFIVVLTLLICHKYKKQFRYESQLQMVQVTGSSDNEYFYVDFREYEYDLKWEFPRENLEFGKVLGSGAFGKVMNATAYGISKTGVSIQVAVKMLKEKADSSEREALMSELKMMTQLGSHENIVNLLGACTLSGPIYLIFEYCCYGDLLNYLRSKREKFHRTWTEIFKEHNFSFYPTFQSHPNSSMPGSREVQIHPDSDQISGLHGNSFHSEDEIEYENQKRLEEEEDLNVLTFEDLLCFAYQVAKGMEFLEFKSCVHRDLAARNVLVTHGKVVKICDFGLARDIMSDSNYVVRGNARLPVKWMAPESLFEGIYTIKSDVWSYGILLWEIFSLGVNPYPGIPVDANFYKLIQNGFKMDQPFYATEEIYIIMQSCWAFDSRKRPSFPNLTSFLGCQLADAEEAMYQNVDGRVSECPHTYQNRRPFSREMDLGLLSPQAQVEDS

MDA-MB-468 = assay: Growth inhibition of human MDA-MB-468 cells; format: functional
Aurora kinase B = Aurora kinase B (Homo sapiens, UniProt Q96GD4); assay: Inhibition of AURKB (unknown origin)
Sequence of Aurora kinase B (Q96GD4 whole entry): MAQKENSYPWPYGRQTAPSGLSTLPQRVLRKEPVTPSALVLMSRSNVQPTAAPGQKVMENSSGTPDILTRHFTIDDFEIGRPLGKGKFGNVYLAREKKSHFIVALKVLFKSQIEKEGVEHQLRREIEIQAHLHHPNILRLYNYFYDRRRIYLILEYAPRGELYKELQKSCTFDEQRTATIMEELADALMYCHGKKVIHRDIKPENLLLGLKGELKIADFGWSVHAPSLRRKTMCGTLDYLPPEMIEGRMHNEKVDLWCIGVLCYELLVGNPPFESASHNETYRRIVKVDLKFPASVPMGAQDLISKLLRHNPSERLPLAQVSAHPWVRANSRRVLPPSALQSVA

MCF7 = assay: Growth inhibition of human MCF7; format: functional
[11] = target: T2, Serine/threonine-protein kinase PLK4 (Homo sapiens, UniProt O00444); assay: Inhibition of PLK4 (unknown origin)
T2 sequence (O00444 whole entry): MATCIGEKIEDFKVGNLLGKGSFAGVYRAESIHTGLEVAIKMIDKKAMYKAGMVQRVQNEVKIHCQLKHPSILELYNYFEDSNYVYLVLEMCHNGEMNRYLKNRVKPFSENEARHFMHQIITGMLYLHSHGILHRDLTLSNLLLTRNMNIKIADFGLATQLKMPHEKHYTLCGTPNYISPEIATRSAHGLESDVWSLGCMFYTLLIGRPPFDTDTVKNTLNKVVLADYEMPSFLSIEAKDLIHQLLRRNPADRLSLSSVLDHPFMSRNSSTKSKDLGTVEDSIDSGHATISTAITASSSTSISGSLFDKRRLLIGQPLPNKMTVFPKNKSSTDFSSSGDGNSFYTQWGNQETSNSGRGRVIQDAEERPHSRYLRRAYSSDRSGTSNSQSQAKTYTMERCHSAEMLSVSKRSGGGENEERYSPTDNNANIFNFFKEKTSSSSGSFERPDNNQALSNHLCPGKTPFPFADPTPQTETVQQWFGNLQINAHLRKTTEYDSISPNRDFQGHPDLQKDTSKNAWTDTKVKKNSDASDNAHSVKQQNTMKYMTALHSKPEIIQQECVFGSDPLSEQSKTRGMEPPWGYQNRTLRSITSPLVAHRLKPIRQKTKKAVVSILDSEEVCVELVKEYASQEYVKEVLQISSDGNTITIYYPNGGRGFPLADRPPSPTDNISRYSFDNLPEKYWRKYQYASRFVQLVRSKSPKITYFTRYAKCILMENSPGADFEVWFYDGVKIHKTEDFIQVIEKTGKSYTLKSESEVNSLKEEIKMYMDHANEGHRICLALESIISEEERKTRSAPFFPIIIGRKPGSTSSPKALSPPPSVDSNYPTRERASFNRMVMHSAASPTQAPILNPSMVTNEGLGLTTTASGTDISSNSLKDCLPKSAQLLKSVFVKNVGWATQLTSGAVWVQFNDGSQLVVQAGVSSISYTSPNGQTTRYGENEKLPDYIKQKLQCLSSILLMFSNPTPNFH

[12] = target: Vascular endothelial growth factor receptor 2 (Homo sapiens, UniProt P35968); assay: Inhibition of KDR (unknown origin)
Sequence of Vascular endothelial growth factor receptor 2 (P35968 whole entry): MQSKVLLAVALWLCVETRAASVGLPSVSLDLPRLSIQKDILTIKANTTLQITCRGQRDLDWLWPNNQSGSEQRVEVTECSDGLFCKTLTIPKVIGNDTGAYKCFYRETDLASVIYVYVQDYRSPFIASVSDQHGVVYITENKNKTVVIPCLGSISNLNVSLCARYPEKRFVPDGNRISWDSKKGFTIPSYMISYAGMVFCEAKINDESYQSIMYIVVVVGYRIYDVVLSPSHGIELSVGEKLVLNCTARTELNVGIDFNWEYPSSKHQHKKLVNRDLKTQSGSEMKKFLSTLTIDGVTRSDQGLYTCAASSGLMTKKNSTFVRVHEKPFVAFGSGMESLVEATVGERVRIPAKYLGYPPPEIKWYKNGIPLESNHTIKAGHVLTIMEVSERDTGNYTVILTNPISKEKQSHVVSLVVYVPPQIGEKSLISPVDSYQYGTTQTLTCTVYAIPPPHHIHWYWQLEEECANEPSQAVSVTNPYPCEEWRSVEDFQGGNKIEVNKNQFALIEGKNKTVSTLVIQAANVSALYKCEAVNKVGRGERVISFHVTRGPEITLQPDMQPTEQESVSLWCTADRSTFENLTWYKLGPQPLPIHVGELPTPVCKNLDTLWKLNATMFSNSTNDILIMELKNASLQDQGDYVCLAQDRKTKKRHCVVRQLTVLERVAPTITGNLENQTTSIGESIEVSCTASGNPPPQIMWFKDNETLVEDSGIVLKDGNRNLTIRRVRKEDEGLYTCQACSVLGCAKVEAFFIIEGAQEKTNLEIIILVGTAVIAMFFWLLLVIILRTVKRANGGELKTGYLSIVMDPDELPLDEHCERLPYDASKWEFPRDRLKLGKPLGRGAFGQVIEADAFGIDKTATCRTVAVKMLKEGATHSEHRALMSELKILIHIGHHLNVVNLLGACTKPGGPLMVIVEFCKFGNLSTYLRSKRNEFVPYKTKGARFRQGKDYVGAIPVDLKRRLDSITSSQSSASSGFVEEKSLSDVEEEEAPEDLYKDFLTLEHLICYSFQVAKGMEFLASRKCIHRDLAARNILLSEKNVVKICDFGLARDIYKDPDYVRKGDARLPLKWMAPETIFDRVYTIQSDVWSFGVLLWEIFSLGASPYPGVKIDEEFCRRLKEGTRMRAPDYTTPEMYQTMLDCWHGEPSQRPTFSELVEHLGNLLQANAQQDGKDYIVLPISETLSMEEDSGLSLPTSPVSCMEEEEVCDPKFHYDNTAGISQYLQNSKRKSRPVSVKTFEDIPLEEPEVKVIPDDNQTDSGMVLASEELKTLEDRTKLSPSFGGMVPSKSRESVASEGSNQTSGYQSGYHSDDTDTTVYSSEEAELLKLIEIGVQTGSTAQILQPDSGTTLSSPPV

Aurora kinase A = target: T3, Aurora kinase A (Homo sapiens, UniProt O14965); assay: Inhibition of AURKA (unknown origin)
T3 sequence (O14965 whole entry): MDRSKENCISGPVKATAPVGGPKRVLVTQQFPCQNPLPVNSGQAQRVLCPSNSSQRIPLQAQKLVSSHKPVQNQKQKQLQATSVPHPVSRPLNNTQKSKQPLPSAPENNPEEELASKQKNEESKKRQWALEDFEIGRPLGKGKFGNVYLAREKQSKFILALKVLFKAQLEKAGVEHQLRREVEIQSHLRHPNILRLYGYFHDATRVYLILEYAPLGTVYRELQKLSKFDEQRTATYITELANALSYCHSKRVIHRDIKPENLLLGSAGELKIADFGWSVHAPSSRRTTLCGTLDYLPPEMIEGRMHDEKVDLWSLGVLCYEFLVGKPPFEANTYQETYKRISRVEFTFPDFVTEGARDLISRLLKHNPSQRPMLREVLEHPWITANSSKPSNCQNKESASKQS

HCC1954 = assay: Growth inhibition of human HCC1954; format: functional
[13] = AUC in mouse at 25 mg/kg, po; format: ADME, organism-based; conditions: in vivo

Sequence of CYP2C9 (P11712 whole entry): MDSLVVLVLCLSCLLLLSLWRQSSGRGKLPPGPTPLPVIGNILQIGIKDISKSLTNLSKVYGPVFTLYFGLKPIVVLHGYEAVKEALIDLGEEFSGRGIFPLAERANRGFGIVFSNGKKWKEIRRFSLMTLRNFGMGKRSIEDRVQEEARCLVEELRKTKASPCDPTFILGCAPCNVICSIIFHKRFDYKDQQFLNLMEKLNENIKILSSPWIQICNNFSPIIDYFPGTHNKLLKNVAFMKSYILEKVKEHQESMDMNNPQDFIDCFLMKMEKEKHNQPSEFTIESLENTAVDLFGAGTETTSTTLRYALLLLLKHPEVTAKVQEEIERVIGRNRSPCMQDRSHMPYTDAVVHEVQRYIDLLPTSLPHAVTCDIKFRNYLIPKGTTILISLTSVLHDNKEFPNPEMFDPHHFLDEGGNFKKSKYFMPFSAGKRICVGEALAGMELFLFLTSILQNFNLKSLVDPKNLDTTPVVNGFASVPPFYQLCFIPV

Compound | logD [1] | half-life [3] | half-life [8] | IC50 [10] | GI50 (MDA-MB-468) | IC50 [11] | further results
CN1CCN(c2ccc(/C=C/c3n[nH]c4cc(/C=C5/C(=O)Nc6ccccc65)ccc34)cn2)CC1 | 4.5 | 4 min | 24 min |  |  |  | inhibition at 1 µM (CYP2C9): 67%; clearance [2]: 107 mL/min/kg; inhibition at 1 µM (CYP2C19): 83%; bioavailability [4]: < 1%; AUC [5]: 170 ng·h/mL; half-life [6]: 306 min; AUC ([7]; BLD = below limit of detection): Bld; Cmax ([9]; BLD = below limit of detection): Bld; inhibition at 1 µM (CYP3A4): 55%
O=C1Nc2ccccc2/C1=C\c1ccc2cn[nH]c2c1 |  |  |  | 0.049 µM | 4.6 µM |  | 
COc1ccc2c(c1)[C@]1(C[C@H]1c1ccc3c(/C=C/c4ccc(N5CCN(C)CC5)nc4)n[nH]c3c1)C(=O)N2 | 4.2 | 9 min | 16 min |  |  |  | inhibition at 1 µM (CYP2C9): 73%; clearance [2]: 51.7 mL/min/kg; inhibition at 1 µM (CYP2C19): 93%; bioavailability [4]: 15%; AUC [5]: 330 ng·h/mL; half-life [6]: 144 min; AUC ([7]; read-out: AUC): 250 ng·h/mL; inhibition at 1 µM (CYP3A4): 76%
COc1ccc2c(c1)C(=Cc1ccc3c(-c4ccc(N5CCN(C)CC5)nc4)n[nH]c3c1)C(=O)N2 | 3.5 | 4 min | 13 min | 0.028 µM | 1.3 to 3.7 µM | 0.0024 µM | inhibition at 1 µM (CYP2C9): 60%; clearance [2]: 178 mL/min/kg; IC50 (Aurora kinase B): 0.035 µM; inhibition at 1 µM (CYP2C19): 64%; GI50 (MCF7): 5.4 µM; bioavailability [4]: 2%; AUC [5]: 94 ng·h/mL; half-life [6]: 78 min; AUC ([7]; read-out: AUC): 24 ng·h/mL; IC50 [12]: 0.63 µM; IC50 (Aurora kinase A): 0.7 µM; inhibition at 1 µM (CYP3A4): 19%; GI50 (HCC1954): 5.9 µM
CN1CCN(c2ccc(-c3n[nH]c4cc(C=C5C(=O)Nc6ccccc65)ccc34)cn2)CC1 |  |  |  | 0.017 µM | 1.3 µM | 0.013 µM | 
COc1ccc2c(c1)[C@]1(C[C@H]1c1ccc3c(-c4ccc(N5C[C@@H](C)N[C@@H](C)C5)cc4)n[nH]c3c1)C(=O)N2 | 3.4 | 43 min | > 60 min | 0.23 µM | 0.0058 µM | 0.0012 µM | inhibition at 1 µM (CYP2C9): 44%; IC50 (Aurora kinase B): 0.013 µM; inhibition at 1 µM (CYP2C19): 54%; GI50 (MCF7): 0.03 µM; AUC [13]: 170 ng·h/mL; IC50 [12]: > 5 µM; Cmax ([9]; read-out: Cmax): 110 ng/mL; IC50 (Aurora kinase A): > 1 µM; inhibition at 1 µM (CYP3A4): -3%; GI50 (HCC1954): 8.8 µM
O=C1Nc2ccccc2C1=Cc1ccc2c(-c3ccc[nH]3)n[nH]c2c1 |  |  |  | 0.05 µM | 7.7 µM | 0.064 µM | 
O=C1Nc2ccccc2C1=Cc1ccc2c(-c3cc4ccccc4[nH]3)n[nH]c2c1 |  |  |  |  |  | 0.54 µM | 
O=C1Nc2ccccc2/C1=C\c1ccc2c(-c3nccs3)n[nH]c2c1 |  |  |  | 0.072 µM |  | 0.49 µM | 
COc1ccc2c(c1)[C@@]1(C[C@@H]1c1ccc3c(-c4ccc(N5CCN(C)CC5)nc4)n[nH]c3c1)C(=O)N2 |  |  |  | 6.5 µM | 3.7 µM | 0.03 µM | IC50 (Aurora kinase B): 2.1 µM; GI50 (MCF7): 5.4 µM; IC50 [12]: > 50 µM; IC50 (Aurora kinase A): > 1 µM; GI50 (HCC1954): 5.9 µM
COc1ccc2c(c1)[C@]1(C[C@H]1c1ccc3c(-c4ccc(N5CCN(CCO)CC5)cc4)n[nH]c3c1)C(=O)N2 | 4 | 28 min | > 60 min | 0.077 µM | 0.068 µM | 0.0012 µM | inhibition at 1 µM (CYP2C9): 41%; clearance [2]: 76.7 mL/min/kg; IC50 (Aurora kinase B): 0.007 µM; inhibition at 1 µM (CYP2C19): 28%; GI50 (MCF7): 1.7 µM; bioavailability [4]: 11%; AUC [5]: 220 ng·h/mL; half-life [6]: 84 min; AUC ([7]; read-out: AUC): 130 ng·h/mL; AUC [13]: 270 ng·h/mL; Cmax ([9]; read-out: Cmax): 250 ng/mL; IC50 (Aurora kinase A): > 1 µM; inhibition at 1 µM (CYP3A4): 11%; GI50 (HCC1954): 3 µM
CN1CCN(c2ccc(-c3n[nH]c4cc([C@@H]5C[C@@]56C(=O)Nc5ccc(F)cc56)ccc34)cn2)CC1 |  |  |  | 0.098 µM | 0.6 µM |  | 
COc1ccc2c(c1)[C@]1(C[C@H]1c1ccc3c(-c4ccc(N5CCNCC5)cc4)n[nH]c3c1)C(=O)N2 | 2.6 | > 60 min | 59 min | 0.044 µM | < 0.01 µM | 0.00045 µM | IC50 (Aurora kinase B): 0.0069 µM; GI50 (MCF7): < 0.01 µM; IC50 [12]: 5.6 µM; Cmax ([9]; BLD = below limit of detection): Bld; IC50 (Aurora kinase A): > 1 µM; GI50 (HCC1954): 3.6 µM
O=C1Nc2ccccc2C1=Cc1ccc2c(-c3ccncc3)n[nH]c2c1 |  |  |  | 0.12 µM | 9.9 µM | 0.22 µM | 
O=C1Nc2ccccc2C1=Cc1ccc2c(-c3cccnc3)n[nH]c2c1 |  |  |  | 0.027 µM | 5 µM | 0.029 µM | 
COc1ccc2c(c1)[C@]1(C[C@H]1c1ccc3c(-c4ccnc(N5CCN(C)CC5)c4)n[nH]c3c1)C(=O)N2 (racemic) |  |  |  | 0.32 µM | 0.38 µM | 0.0021 µM | 
COc1ccc2c(c1)[C@]1(C[C@H]1c1ccc3c(-c4ccc(N5CCC(O)CC5)nc4)n[nH]c3c1)C(=O)N2 (racemic) |  |  |  | 0.24 µM | 0.89 µM |  | 
COc1ccc2c(c1)[C@]1(C[C@H]1c1ccc3c(-c4ccc(N5CCN(C)CC5)nc4)n[nH]c3c1)C(=O)N2 (racemic) |  |  |  | 0.26 µM | 0.12 µM | 0.001 µM | 
CN1CCN(c2ccc(-c3n[nH]c4cc([C@@H]5C[C@@]56C(=O)Nc5ccccc56)ccc34)cn2)CC1 (racemic) |  |  |  | 0.2 µM | 0.77 µM | 0.054 µM | 
COc1ccc2c(c1)[C@]1(C[C@H]1c1ccc3c(-c4ccc(N5CCOCC5)nc4)n[nH]c3c1)C(=O)N2 (racemic) |  |  |  | 1.2 µM | 0.67 µM |  | 
